≈ marks a conversion by molar mass, not a printed value.
Tests used:
Type in all cases: functional
[1] = test system: Salmonella typhi; test: Antibacterial activity against Salmonella enterica subsp. enterica serovar Typhi MTCC 733 assessed as growth inhibition at 3.12 to 50 ug/mL after 24 hr by agar disk diffusion method
[2] = test system: Staphylococcus aureus; test: Antibacterial activity against Staphylococcus aureus MTCC 96 assessed as growth inhibition after 24 hr by agar streak dilution method; details: MTCC 96, 24 h
[3] = test system: Candida albicans; test: Antifungal activity against Candida albicans MTCC 183 assessed as growth inhibition after 48 hr by agar streak dilution method; details: MTCC 183, 48 h
[4] = test system: Mycobacterium tuberculosis; test: Antimycobacterial activity against Mycobacterium tuberculosis H37Rv assessed as growth inhibition at MIC after 12 to 28 days by Lowenstein and Jensen agar dilution method
[5] = test system: Klebsiella pneumoniae; test: Antibacterial activity against Klebsiella pneumoniae MTCC 109 assessed as growth inhibition at 3.12 to 50 ug/mL after 24 hr by agar disk diffusion method
[6] = test system: Escherichia coli; test: Antibacterial activity against Escherichia coli MTCC 739 assessed as growth inhibition after 24 hr by agar streak dilution method; details: MTCC 739, 24 h
[7] = test system: Salmonella typhi; test: Antibacterial activity against Salmonella enterica subsp. enterica serovar Typhi MTCC 733 assessed as growth inhibition after 24 hr by agar streak dilution method; details: MTCC 733, 24 h
[8] = test system: Pseudomonas aeruginosa; test: Antibacterial activity against Pseudomonas aeruginosa MTCC 741 assessed as growth inhibition after 24 hr by agar streak dilution method; details: MTCC 741, 24 h
[9] = test system: Pseudomonas aeruginosa; test: Antibacterial activity against Pseudomonas aeruginosa MTCC 741 assessed as growth inhibition at 3.12 to 50 ug/mL after 24 hr by agar disk diffusion method
[10] = test system: Escherichia coli; test: Antibacterial activity against Escherichia coli MTCC 739 assessed as growth inhibition at 3.12 to 50 ug/mL after 24 hr by agar disk diffusion method
[11] = test system: Aspergillus niger; test: Antifungal activity against Aspergillus niger MTCC 282 assessed as growth inhibition after 48 hr by agar streak dilution method; details: MTCC 282, 48 h
[12] = test system: Shigella flexneri; test: Antibacterial activity against Shigella flexneri MTCC 1457 assessed as growth inhibition after 24 hr by agar streak dilution method; details: MTCC 1457, 24 h
[13] = test system: Bacillus cereus; test: Antibacterial activity against Bacillus cereus MTCC 430 assessed as growth inhibition after 24 hr by agar streak dilution method; details: MTCC 430, 24 h
[14] = test system: Staphylococcus aureus; test: Antibacterial activity against Staphylococcus aureus MTCC 96 assessed as growth inhibition at 3.12 to 50 ug/mL after 24 hr by agar disk diffusion method
[15] = test system: Candida albicans; test: Antifungal activity against Candida albicans MTCC 183 assessed as growth inhibition at 3.12 to 50 ug/mL after 24 hr by agar disk diffusion method
[16] = test system: Bacillus cereus; test: Antibacterial activity against Bacillus cereus MTCC 430 assessed as growth inhibition at 3.12 to 50 ug/mL after 24 hr by agar disk diffusion method
[17] = test system: Aspergillus niger; test: Antifungal activity against Aspergillus niger MTCC 282 assessed as growth inhibition at 3.12 to 50 ug/mL after 24 hr by agar disk diffusion method
[18] = test system: Proteus vulgaris; test: Antibacterial activity against Proteus vulgaris MTCC 1771 assessed as growth inhibition after 24 hr by agar streak dilution method; details: MTCC 1771, 24 h
[19] = test system: Aspergillus fumigatus; test: Antifungal activity against Aspergillus fumigatus MTCC 343 assessed as growth inhibition after 48 hr by agar streak dilution method; details: MTCC 343, 48 h
[20] = test system: Klebsiella pneumoniae; test: Antibacterial activity against Klebsiella pneumoniae MTCC 109 assessed as growth inhibition after 24 hr by agar streak dilution method; details: MTCC 109, 24 h
[21] = test system: Aspergillus clavatus; test: Antifungal activity against Aspergillus clavatus MTCC 1323 assessed as growth inhibition after 48 hr by agar streak dilution method; details: MTCC 1323, 48 h
[22] = test system: Proteus vulgaris; test: Antibacterial activity against Proteus vulgaris MTCC 1771 assessed as growth inhibition at 3.12 to 50 ug/mL after 24 hr by agar disk diffusion method
[23] = test system: Aspergillus clavatus; test: Antifungal activity against Aspergillus clavatus MTCC 1323 assessed as growth inhibition at 3.12 to 50 ug/mL after 24 hr by agar disk diffusion method
[24] = test system: Mycobacterium tuberculosis; test: Antimycobacterial activity against Mycobacterium tuberculosis H37Rv assessed as growth inhibition after 12 to 28 days by Lowenstein and Jensen agar dilution method
[25] = test system: Shigella flexneri; test: Antibacterial activity against Shigella flexneri MTCC 1457 assessed as growth inhibition at 3.12 to 50 ug/mL after 24 hr by agar disk diffusion method
[26] = test system: Mycobacterium tuberculosis; test: Antimycobacterial activity against Mycobacterium tuberculosis H37Rv assessed as growth inhibition measured within 10 days by BACTEC MGIT method; details: 240 h
[27] = test system: Aspergillus fumigatus; test: Antifungal activity against Aspergillus fumigatus MTCC 343 assessed as growth inhibition at 3.12 to 50 ug/mL after 24 hr by agar disk diffusion method

SMILES	inhibition zone (IZ) [1] [mm]	MIC [2] [µg/mL]	MIC [3] [µg/mL]	growth inhibition (GI) [4] [%]	inhibition zone (IZ) [5] [mm]	MIC [6] [µg/mL]	MIC [7] [µg/mL]	MIC [8] [µg/mL]	inhibition zone (IZ) [9] [mm]	inhibition zone (IZ) [10] [mm]	MIC [11] [µg/mL]	MIC [12] [µg/mL]	MIC [13] [µg/mL]	inhibition zone (IZ) [14] [mm]	inhibition zone (IZ) [15] [mm]	inhibition zone (IZ) [16] [mm]	inhibition zone (IZ) [17] [mm]	MIC [18] [µg/mL]	MIC [19] [µg/mL]	MIC [20] [µg/mL]	also measured
CCOc1ccc(NC(=O)CNc2ccc(-c3nc(N4CC(C)CC(C)C4)nc(N4CC(C)CC(C)C4)n3)cc2)cc1 (stereo not drawn)	21	25 (≈ 43.7 µM)	25 (≈ 43.7 µM)	98	<10	12.5 (≈ 21.9 µM)	25 (≈ 43.7 µM)	50 (≈ 87.4 µM)	16	24	25 (≈ 43.7 µM)	25 (≈ 43.7 µM)	50 (≈ 87.4 µM)	19	24	20	19	12.5 (≈ 21.9 µM)	> 50	50 (≈ 87.4 µM)	MIC [21]: 50 µg/mL (≈ 87.4 µM); inhibition zone (IZ) [22]: 25 mm; inhibition zone (IZ) [23]: 14 mm; MIC [24]: 25 µg/mL (≈ 43.7 µM); inhibition zone (IZ) [25]: 22 mm; MIC [26]: > 6.25 µg/mL; inhibition zone (IZ) [27]: <10 mm
CC(=O)Nc1ccc(NC(=O)CNc2ccc(-c3nc(N4CC(C)CC(C)C4)nc(N4CC(C)CC(C)C4)n3)cc2)cc1 (stereo not drawn)	<10	50 (≈ 85.5 µM)	50 (≈ 85.5 µM)	95	<10	50 (≈ 85.5 µM)	50 (≈ 85.5 µM)	50 (≈ 85.5 µM)	19	20	12.5 (≈ 21.4 µM)	50 (≈ 85.5 µM)	50 (≈ 85.5 µM)	<10	17	12	22	6.25 (≈ 10.7 µM)	50 (≈ 85.5 µM)	50 (≈ 85.5 µM)	MIC [21]: 50 µg/mL (≈ 85.5 µM); inhibition zone (IZ) [22]: 27 mm; inhibition zone (IZ) [23]: 19 mm; MIC [24]: 62.5 µg/mL (≈ 107 µM); inhibition zone (IZ) [25]: 16 mm; MIC [26]: > 6.25 µg/mL; inhibition zone (IZ) [27]: 12 mm
CC1CC(C)CN(c2nc(-c3ccc(NCC(=O)Nc4nc5ccccc5s4)cc3)nc(N3CC(C)CC(C)C3)n2)C1 (stereo not drawn)	12	50 (≈ 85.5 µM)	> 50	94	<10	50 (≈ 85.5 µM)	50 (≈ 85.5 µM)	50 (≈ 85.5 µM)	16	14	50 (≈ 85.5 µM)	50 (≈ 85.5 µM)	50 (≈ 85.5 µM)	16	<10	14	<10	50 (≈ 85.5 µM)	> 50	50 (≈ 85.5 µM)	MIC [21]: > 50 µg/mL; inhibition zone (IZ) [22]: 18 mm; inhibition zone (IZ) [23]: <10 mm; MIC [24]: 500 µg/mL (≈ 855 µM); inhibition zone (IZ) [25]: <10 mm; MIC [26]: > 6.25 µg/mL; inhibition zone (IZ) [27]: <10 mm
CC1CC(C)CN(c2nc(-c3ccc(NCC(=O)Nc4ccc(F)cc4)cc3)nc(N3CC(C)CC(C)C3)n2)C1 (stereo not drawn)	21	12.5 (≈ 22.9 µM)	50 (≈ 91.6 µM)	97	21	25 (≈ 45.8 µM)	25 (≈ 45.8 µM)	12.5 (≈ 22.9 µM)	27	20	50 (≈ 91.6 µM)	12.5 (≈ 22.9 µM)	25 (≈ 45.8 µM)	20	15	22	18	50 (≈ 91.6 µM)	50 (≈ 91.6 µM)	50 (≈ 91.6 µM)	MIC [21]: 50 µg/mL (≈ 91.6 µM); inhibition zone (IZ) [22]: 16 mm; inhibition zone (IZ) [23]: 13 mm; MIC [24]: 25 µg/mL (≈ 45.8 µM); inhibition zone (IZ) [25]: 25 mm; MIC [26]: > 6.25 µg/mL; inhibition zone (IZ) [27]: 22 mm
